# How the values were obtained:
# [1] = tested on: bed bugs (Cimex lectularius); test: Guinea pig - efficacy against bed bug; assay type: in vivo; conditions: for effective to control bed bugs: 5 mg/kg
# Procedure, shortened: (§1)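 Guinea pigs given 5 mg/kg test compound orally (gavage) or s.c. in 10% DMF/emulsifier plus 90% water for injection, with local co-infestations of Ornithodoros moubata juveniles and Cimex lectularius at several post-treatment times. Engorged parasites scored dead/damaged about 24 h after collection; % inhibition versus pretreatment baseline by modified Schneider-Orelli formula.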
# [2] = tested on: Fly larvae I (Lucilia cuprina); test: Fly larvae contact/feeding assay; conditions: 48 h, read-out: Inhibition of fly larvae development
# Procedure: Fly larvae I (Lucilia cuprina) were grown in medium spiked with declining concentrations of a test compound (dissolved in a DMSO-emulsifier-deionized water mixture). Inhibition of fly larvae development (%) was assessed after approximately 48 hours of continuous exposure. The vitality of used parasites was confirmed in negative control groups (i.e., an untreated control and a solvent control).
# [3] = tested on: Rhipicephalus sanguineus or Haemaphysalis elliptica ticks; test: Dog - efficacy against ticks; assay type: in vivo; conditions: for therapeutic efficacy against ticks (active = efficacy ≥80 percent): D2
# Procedure: (§2) Beagle dogs were infested (whole body) with 80 Ctenocephalides felis fleas and 50 Rhipicephalus sanguineus or Haemaphysalis elliptica ticks (sex ratio 1:1) two days before the treatment day (Day 0), and repeatedly thereafter. Dogs of treatment groups were treated with 10 mg/kg bodyweight of a test compound orally (compound weighed in gelatin capsule), topically (spot-on, DMA 92%/DEET 8%) or subcutaneously (PEG 200 90%/water for injection 10%). Dogs of the negative control group received only an empty gelatin capsule orally and the spot-on formulation excipients topically.
# (§3) Compounds with efficacy ≥80 percent were found active.
# [4] = tested on: Mobile stages of sea lice (pre-adults, adults of Lepeophtheirus salmonis); test: Adult sea lice contact assay; conditions: read-out: EC50 (sea lice inhibition, dead+damaged)
# Procedure: Mobile stages of sea lice (i.e., pre-adults, adults of Lepeophtheirus salmonis) were exposed to seawater spiked with declining concentrations of a test compound (dissolved in a PEG sea-water mixture). Sea lice inhibition (% of dead+damaged sea lice) was assessed after approximately 1 and 24 hours of continuous exposure in comparison to a negative (solvent) control group.
# [5] = tested on: Copepodids (juvenile sea lice stage of Lepeophtheirus salmonis); test: Juvenile sea lice contact assay; conditions: Lepeophtheirus salmonis, 24 h, read-out: Sea lice inhibition (% of dead+damaged copepodids)
# Procedure: Copepodids (juvenile sea lice stage of Lepeophtheirus salmonis) were exposed to seawater spiked with declining concentrations of a test compound (dissolved in a DMSO sea-water mixture). Sea lice inhibition (% of dead+damaged copepodids) was assessed after approximately 24 hours of continuous exposure. The vitality of used parasites was confirmed in a negative (solvent) control group.
# [6] = tested on: juvenile soft ticks (Ornithodoros moubata); test: Guinea pig - efficacy against argaside tick; assay type: in vivo
# Procedure, shortened: as §1
# [7] = tested on: Ctenocephalides felis fleas; test: Dog - efficacy against fleas; assay type: in vivo; conditions: for therapeutic efficacy against fleas (active = efficacy ≥80 percent): D2
# Procedure: as §2, §3
# [8] = tested on: Adult fleas (Ctenocephalides felis); test: Flea feeding assay; conditions: 48 h, read-out: flea inhibition (% of dead+damaged fleas)
# Procedure: Adult fleas (Ctenocephalides felis) of defined age were fed on artificial membranes with blood spiked with declining concentrations of a test compound (dissolved in a DMSO-emulsifier-blood mixture). After approximately 48 hours of continuous feeding, flea inhibition (i.e., % of dead+damaged fleas per test concentration) was assessed. The vitality of used parasites was confirmed in negative control groups (i.e., an untreated control and a solvent control).
# Rhipicephalus microplus = test: Cattle - efficacy against one-host tick; assay type: in vivo
# Procedure: Cattle were infested (whole body) with up to 3000 Rhipicephalus microplus larvae two or three times per week before and after the treatment day (Day 0). Cattle of treatment groups were treated subcutaneously or topically (spray or pour-on) at a dose of 1 mg/kg bodyweight of a test compound. As subcutaneous formulation either 2-pyrrolidon 50%/Tween 80 50% or NMP 60%/PEG300 40% was used. As topical formulation either a spray solution (DMF/Emulsifier 2%/tap water 98%) (Compound 4) or a DMA 92%/DEET 8% pour-on solution (all other compounds) or a pour-on solution containing Imwitor 988 (20%)+Miglyol 840 (QS) (Compound 453 and Compound 466) or a pour-on solution containing Miglyol 840 (QS) (Compound 453) was used. Cattle of the negative control group received only the formulation excipients of the respective administration route.
# Fully engorged female ticks dropping from cattle were collected daily after treatment and counted in treatment and control groups. Efficacy was expressed using the standard ADEQ analysis method (ADEQ calculation in accordance with WAAVP guidelines for evaluating the efficacy of acaricides against ticks on ruminants; Veterinary parasitology 136 (2006) 29-43). Compounds with efficacy ≥80 percent were found active/effective. Onset of efficacy means the first Day with efficacy ≥80 percent. Duration of efficacy means the last Day with efficacy ≥80 percent.
# [9] = tested on: Rhipicephalus microplus tick larvae; test: Tick larvae contact assay; conditions: read-out: Tick inhibition (% of damage+dead ticks)
# Procedure: Tick larvae (Rhipicephalus microplus) were immersed for approximately 3 minutes in declining concentrations of a test compound (dissolved in a DMSO-emulsifier-deionized water mixture). Tick inhibition (% of damage+dead ticks per test concentration) was assessed approximately 24 hours after contact exposure. The vitality of used parasites was confirmed in negative control groups (i.e. an untreated control and a solvent control).
# [10] = tested on: Tick nymphs (stage III, Ornithodoros moubata); test: Tick feeding assay; conditions: read-out: Tick inhibition (% of damaged+dead ticks at molting-assessment)
# Procedure: Tick nymphs (stage III, Ornithodoros moubata) were fed on artificial membranes with blood spiked with declining concentrations of a test compound (dissolved in a DMSO-emulsifier-blood mixture). Fed nymphs were incubated for around 2-3 weeks to enable tick molting into the next stage. Tick inhibition (i.e, % of damaged+dead ticks at molting-assessment per test concentration) was assessed. The vitality of used parasites was confirmed in negative control groups (i.e., an untreated control and a solvent control).
# [11] = 5 mg/kg subcutaneous, after 7 days
# [12] = 5 mg/kg subcutaneous, after 10 days
# [13] = 5 mg/kg subcutaneous, after 14 days
# [14] = 5 mg/kg subcutaneous, after 17 days
# [15] = 1 mg/kg topical (Compound 4: spray solution; others: DMA 92%/DEET 8% pour-on)
compound,measurement,setting,value
O=C(Nc1ccc(F)cc1)c1cc(NC(=O)[C@H]2[C@H](c3cc(Cl)cc(Cl)c3)C2(Cl)Cl)ccc1F (racemic) [Compound 4],"activity against bed bugs (≥80% inhibition, killed+damaged)","[1]; 5 mg/kg oral, Day 0",immediate activity
same,"activity against bed bugs (≥80% inhibition, killed+damaged)","[1]; 5 mg/kg oral, after 7 days",activity
same,"activity against bed bugs (≥80% inhibition, killed+damaged)","[1]; 5 mg/kg oral, after 10 days",activity
same,"activity against bed bugs (≥80% inhibition, killed+damaged)","[1]; 5 mg/kg oral, after 14 days",activity
same,"activity against bed bugs (≥80% inhibition, killed+damaged)","[1]; 5 mg/kg subcutaneous, Day 0",immediate activity
same,"activity against bed bugs (≥80% inhibition, killed+damaged)",[1]; [11],activity
same,"activity against bed bugs (≥80% inhibition, killed+damaged)",[1]; [12],activity
same,"activity against bed bugs (≥80% inhibition, killed+damaged)",[1]; [13],activity
same,"activity against bed bugs (≥80% inhibition, killed+damaged)",[1]; [14],activity
same,effective to control bed bugs,"[1]; at least until Day 10, both administration routes (oral, subcutaneous)",100%
same,effective to control bed bugs,"[1]; for at least one week, both administration routes",100%
same,inhibition at 100 ppm,[2],80%
same,efficacy against ticks in dogs (conclusion),[3]; 10 mg/kg,therapeutic efficacy
same,therapeutic efficacy against ticks (active = efficacy ≥80 percent),[3]; 10 mg/kg oral,active
same,therapeutic efficacy against ticks (active = efficacy ≥80 percent),[3]; 10 mg/kg subcutaneous,active
same,EC50,[4],10 to 25 nM
same,inhibition at 0.1 µM,[5],≥ 80%
same,"activity against tick nymphs (≥80% inhibition, killed+damaged)","[6]; 5 mg/kg oral, Day 0",immediate activity
same,"activity against tick nymphs (≥80% inhibition, killed+damaged)","[6]; 5 mg/kg oral, after 7 days",activity
same,"activity against tick nymphs (≥80% inhibition, killed+damaged)","[6]; 5 mg/kg oral, after 10 days",activity
same,"activity against tick nymphs (≥80% inhibition, killed+damaged)","[6]; 5 mg/kg oral, after 14 days",activity
same,"activity against tick nymphs (≥80% inhibition, killed+damaged)","[6]; 5 mg/kg subcutaneous, Day 0",immediate activity
same,"activity against tick nymphs (≥80% inhibition, killed+damaged)",[6]; [11],activity
same,"activity against tick nymphs (≥80% inhibition, killed+damaged)",[6]; [12],activity
same,"activity against tick nymphs (≥80% inhibition, killed+damaged)",[6]; [13],activity
same,"activity against tick nymphs (≥80% inhibition, killed+damaged)",[6]; [14],activity
same,effective to control ticks,"[6]; 5 mg/kg, at least until Day 10, both administration routes (oral, subcutaneous)",100%
same,effective to control ticks,"[6]; 5 mg/kg, for at least one week, both administration routes",100%
same,"duration of efficacy, subcutaneous compared with oral administration","[6]; 5 mg/kg, ticks and bed bugs",longer duration of efficacy
same,efficacy against fleas in dogs (conclusion),[7]; 10 mg/kg,therapeutic efficacy
same,therapeutic efficacy against fleas (active = efficacy ≥80 percent),[7]; 10 mg/kg oral,active
same,therapeutic efficacy against fleas (active = efficacy ≥80 percent),[7]; 10 mg/kg subcutaneous,active
same,active against fleas up to (efficacy ≥80 percent),"[7]; 10 mg/kg subcutaneous, repeated infestations",86 D
same,inhibition at 1 ppm,[8],80%
same,duration of efficacy (last Day with efficacy ≥80 percent),Rhipicephalus microplus; 1 mg/kg subcutaneous,38 days
same,onset of efficacy (first Day with efficacy ≥80 percent),Rhipicephalus microplus; 1 mg/kg subcutaneous,2 days
same,duration of efficacy (last Day with efficacy ≥80 percent),Rhipicephalus microplus; [15],58 days
same,onset of efficacy (first Day with efficacy ≥80 percent),Rhipicephalus microplus; [15],3 days
same,inhibition at 25 µM,[9],≥ 80%
same,inhibition at 100 ppm,[9],80%
same,inhibition at 1 ppm,[10],80%
